In PubChem BioAssay AID200 (DTP/NCI, 2004):
“And” between values parts separate entries of the source, which are not always exact repeats. Equal entries are not always repeated. Toxic doses and inconclusive results are not listed.

System: B6C3F1 mice, B16 melanoma ip, median survival T/C
Assay: NCI In Vivo Anticancer Drug Screen. Data for tumor model B16 Melanoma (intraperitoneal) in B6C3F1 mice
Conditions: endpoint: median survival time, schedule: Q01DX009 (ip), higher = longer survival
Summary of the method: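 Readout: survival or tumor size in treated mice relative to vehicle controls (T/C). Model uses transplantable tumors grown in mice.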

[1] = dose: 0.5 mg/kg/injection, vehicle: saline
[2] = dose: 1.0 mg/kg/injection, vehicle: saline
[3] = dose: 2.0 mg/kg/injection, vehicle: saline
[4] = dose: 100.0 mg/kg/injection, vehicle: saline
[5] = dose: 200.0 mg/kg/injection, vehicle: saline
[6] = dose: 400.0 mg/kg/injection, vehicle: saline
[7] = dose: 12.5 mg/kg/injection, vehicle: saline with Tween-80
[8] = dose: 25.0 mg/kg/injection, vehicle: saline with Tween-80
[9] = dose: 100.0 mg/kg/injection, vehicle: saline with Tween-80
[10] = dose: 12.5 mg/kg/injection, vehicle: saline
[11] = dose: 25.0 mg/kg/injection, vehicle: saline
[12] = dose: 50.0 mg/kg/injection, vehicle: saline
[13] = dose: 50.0 mg/kg/injection, vehicle: saline with Tween-80
[14] = dose: 25.0 mg/kg/injection, vehicle: Klucel (hydroxypropylcellulose) (HPC)
[15] = dose: 50.0 mg/kg/injection, vehicle: Klucel (hydroxypropylcellulose) (HPC)
[16] = dose: 100.0 mg/kg/injection, vehicle: Klucel (hydroxypropylcellulose) (HPC)

For COc1cccc2c1C(=O)c1c(O)c3c(c(O)c1C2=O)C[C@@](O)(C(=O)CO)C[C@@H]3OC1CC(N)CC(C)O1 (some centres undefined), the T/C (dose: 0.18 mg/kg/injection, vehicle: water) was 174 % of control, the T/C (dose: 0.37 mg/kg/injection, vehicle: water) was 231 % of control and the T/C (dose: 0.38 mg/kg/injection, vehicle: water) was 175 % of control. For the same compound, the T/C (dose: 0.75 mg/kg/injection, vehicle: water) was 187 % of control and 238 % of control and the T/C (dose: 1.5 mg/kg/injection, vehicle: water) was 181 % of control and 187 % of control.

In the case of CC1[C@@H]2CC=C3[C@H]4CCC5Cc6nc7c(nc6C[C@@]5(C)C4CC(=O)[C@]32CO[C@]12OC(C)(C)CC2O)CC1CC[C@@H]2C3=C[C@H]4O[C@@]5(O[C@@](C)(CO)C[C@@H]5O)C(C)[C@@]4(O)[C@]3(C)[C@@H](O)CC2[C@]1(C)C7 (some centres undefined), the T/C (dose: 6.25 micrograms/kg/injection, vehicle: saline + alcohol) is reported as 101 % of control, the T/C (dose: 12.5 micrograms/kg/injection, vehicle: saline + alcohol) is reported as 98 % of control and the T/C (dose: 25.0 micrograms/kg/injection, vehicle: saline + alcohol) is reported as 98 % of control. For the same compound, the T/C (dose: 50.0 micrograms/kg/injection, vehicle: saline + alcohol) was 102 % of control.

With Cc1c(N)nc([C@H](CC(N)=O)NC[C@H](N)C(N)=O)nc1C(=O)N[C@H](C(=O)N[C@H](C)[C@@H](O)CC(=O)N[C@H](C(=O)NC(O[C@@H]1O[C@@H](C)[C@@H](N)[C@@H](O)[C@H]1O)C(O)c1nc(-c2nc(C(=O)NCCCCN)cs2)cs1)[C@@H](C)O)[C@@H](O[C@@H]1O[C@@H](CO)[C@@H](O)[C@H](O)[C@@H]1O[C@H]1O[C@H](CO)[C@@H](O)[C@H](OC(N)=O)[C@@H]1O)c1c[nH]cn1 (some centres undefined) the T/C (dose: 0.25 mg/kg/injection, vehicle: saline) was 104 % of control, the T/C (dose: 0.4 mg/kg/injection, vehicle: saline) was 116 % of control and 94 % of control and the T/C [1] was 107 % of control. The T/C (dose: 0.8 mg/kg/injection, vehicle: saline) was 94 % of control, the T/C [2] was 115 % of control and the T/C (dose: 1.6 mg/kg/injection, vehicle: saline) was 98 % of control. The T/C [3] was 114 % of control, the T/C (dose: 3.2 mg/kg/injection, vehicle: saline) was 101 % of control and the T/C (dose: 4.0 mg/kg/injection, vehicle: saline) was 121 % of control. For the same compound, the T/C (dose: 6.4 mg/kg/injection, vehicle: saline) was 97 % of control.

For NC1(C(=O)O)CCCc2ccc(N(CCCl)CCCl)cc21 (centres undefined), the T/C (dose: 2.5 mg/kg/injection, vehicle: saline) was 120 % of control, the T/C (dose: 10.0 mg/kg/injection, vehicle: saline with Tween-80) was 121 % of control and the T/C (dose: 10.0 mg/kg/injection, vehicle: saline) was 157 % of control. For the same compound, the T/C (dose: 20.0 mg/kg/injection, vehicle: saline) was 189 % of control.

With O=C1C=C2C(=CCOC2O)O1 (centres undefined) the T/C (dose: 0.25 mg/kg/injection, vehicle: Klucel (hydroxypropylcellulose) (HPC)) was 95 % of control and 97 % of control, the T/C (dose: 0.5 mg/kg/injection, vehicle: Klucel (hydroxypropylcellulose) (HPC)) was 94 % of control and 98 % of control and the T/C (dose: 1.0 mg/kg/injection, vehicle: Klucel (hydroxypropylcellulose) (HPC)) was 99 % of control and 100 % of control. The T/C (dose: 2.0 mg/kg/injection, vehicle: Klucel (hydroxypropylcellulose) (HPC)) was 97 % of control and the T/C (dose: 4.0 mg/kg/injection, vehicle: Klucel (hydroxypropylcellulose) (HPC)) was 91 % of control.

O=C1c2ccccc2C(=O)c2c3c(cc(NCCNCCO)c21)N(CCO)CCN3 was tested, and the T/C (dose: 25.0 mg/kg/injection, vehicle: DMSO) was 108 % of control, the T/C (dose: 50.0 mg/kg/injection, vehicle: DMSO) was 112 % of control and the T/C (dose: 100.0 mg/kg/injection, vehicle: DMSO) was 167 % of control.

In the case of CCC1CC2CN(CCc3c([nH]c4ccccc34)C(C(=O)OC)(c3cc4c(cc3OC)N(C)C3C(O)(C(=O)OC)C(OC(C)=O)C5(CC)C=CCN6CCC43C65)C2)C1 (centres undefined), the T/C (dose: 0.06 mg/kg/injection, vehicle: saline) is reported as 111 % of control, the T/C (dose: 0.06 mg/kg/injection, vehicle: suspension in saline) is reported as 116 % of control and the T/C (dose: 0.12 mg/kg/injection, vehicle: suspension in saline) is reported as 114 % of control. The T/C (dose: 0.13 mg/kg/injection, vehicle: saline) was 110 % of control, the T/C [1] was 175 % of control and the T/C [2] was 208 % of control. For the same compound, the T/C [3] was 248 % of control and the T/C (dose: 2.0 mg/kg/injection, vehicle: suspension in saline) was 226 % of control.

With COC1/C=C\C=C(/C)C(=O)NC2=CC(=O)C(N)=C(CC(C)CC(OC)C(O)C(C)C=C(C)C1OC(N)=O)C2=O (centres undefined) the T/C (dose: 0.75 mg/kg/injection, vehicle: saline with Tween-80) was 113 % of control, the T/C (dose: 1.5 mg/kg/injection, vehicle: saline with Tween-80) was 113 % of control and the T/C (dose: 3.0 mg/kg/injection, vehicle: saline with Tween-80) was 116 % of control.

With Nc1ncnc2c1ncn2C1OC(COP(=O)(O)O)C(O)C1O (centres undefined) the T/C (dose: 40.0 mg/kg/injection, vehicle: water) was 86 % of control, the T/C (dose: 80.0 mg/kg/injection, vehicle: water) was 88 % of control and the T/C [4] was 109 % of control. The T/C (dose: 160.0 mg/kg/injection, vehicle: water) was 94 % of control, the T/C [5] was 109 % of control and the T/C (dose: 320.0 mg/kg/injection, vehicle: water) was 97 % of control. For the same compound, the T/C [6] was 115 % of control.

For O=C(N/N=C/c1c(O)ccc2ccccc12)C(=O)N/N=C/c1c(O)ccc2ccccc12, the T/C [7] was 110 % of control and 94 % of control and 107 % of control, the T/C [8] was 111 % of control and 112 % of control and 118 % of control and the T/C [9] was 94 % of control.

In the case of C[N+](C)(C)c1ncnc2nc[nH]c12, the T/C [10] is reported as 98 % of control, the T/C [11] is reported as 100 % of control and the T/C [12] is reported as 114 % of control and 88 % of control. For the same compound, the T/C [4] was 93 % of control and 103 % of control and the T/C [5] was 93 % of control.

In the case of CN1CCC(c2ccccc2)(c2ccccc2)C(=O)C1, the T/C [8] is reported as 97 % of control, the T/C [13] is reported as 90 % of control and the T/C [9] is reported as 93 % of control and 95 % of control.

With CC(C)CC(NC=O)C(=O)O (centres undefined) the T/C [14] was 103 % of control, the T/C [15] was 103 % of control and the T/C [16] was 92 % of control and 100 % of control.

With COc1ccc(OCC(O)CN2CCN(c3ccc(Cl)cc3)CC2)cc1 (centres undefined) the T/C [7] was 122 % of control, the T/C [8] was 122 % of control and the T/C [13] was 87 % of control. For the same compound, the T/C [9] was 89 % of control and 96 % of control.

With O=C(O)CC(=O)O.[NH-]CC[NH-].[Pt+2] the T/C (dose: 12.5 mg/kg/injection, vehicle: dextrose) was 175 % of control and the T/C (dose: 25.0 mg/kg/injection, vehicle: dextrose) was 86 % of control.

With Cc1cn(C2CC(O)C(CO)O2)c(=O)[nH]c1=O (centres undefined) the T/C [10] was 99 % of control, the T/C [11] was 98 % of control and the T/C [12] was 102 % of control. For the same compound, the T/C [4] was 98 % of control, the T/C [5] was 98 % of control and the T/C [6] was 115 % of control.

With C(=N/NC1=NCCN1)/c1c2ccccc2c(/C=N\NC2=NCCN2)c2ccccc12 the T/C (dose: 3.12 mg/kg/injection, vehicle: saline) was 183 % of control, the T/C (dose: 6.25 mg/kg/injection, vehicle: saline) was 189 % of control and the T/C [10] was 179 % of control.

Cc1cc(N/N=C/c2ccccn2)nc2ccccc12 was tested, and the T/C (dose: 6.25 mg/kg/injection, vehicle: Klucel (hydroxypropylcellulose) (HPC)) was 96 % of control, the T/C (dose: 12.5 mg/kg/injection, vehicle: Klucel (hydroxypropylcellulose) (HPC)) was 94 % of control and 99 % of control and the T/C [14] was 97 % of control and 98 % of control. The T/C [15] was 93 % of control and 101 % of control and the T/C [16] was 103 % of control and 106 % of control.

CC1OC2CC(=O)OC2C2=C1C(=O)c1cc(-c3cc(O)c4c(c3)C(=O)C3=C(C4=O)C4OC(=O)CC4OC3C)cc(O)c1C2=O (centres undefined) was tested, and the T/C (dose: 0.5 mg/kg/injection, vehicle: other) was 90 % of control.
